Values of other authors, collected in patent publication US20190343827A1, “DEUTERATED ANALOGS OF TARIQUIDAR” (Izumi Technology, LLC, priority 2018, published 2019).

Assays:
[1] = system: non-small-cell lung cancer; conditions: co-administration with paclitaxel or carboplatin
[2] = system: refractory solid tumors
[3] = patients with lung, ovarian and cervical cancer

clearance of docetaxel and vinorelbine ([2]; co-administered with tariquidar, compared to historic data in absence of tariquidar): reduced
docetaxel disposition as a result of tariquidar co-administration [3]: No significant differences
Compound: COc1cc2c(cc1OC)CN(CCc1ccc(NC(=O)c3cc(OC)c(OC)cc3NC(=O)c3cnc4ccccc4c3)cc1)CC2 [Tariquidar, N-[2-[[4-[2-(6,7-dimethoxy-3,4-dihydro-1H-isoquinolin-2-yl)ethyl]phenyl]carbamoyl]-4,5-dimethoxyphenyl]quinoline-3-carboxamide]
study outcome, toxicity [1]: terminated early due to toxicity
clinical response ([2]; children and adolescents with refractory solid tumors, 29 patients): low
complete response, number of patients ([2]; out of 29 patients): one
partial response, number of patients ([2]; out of 29 patients): two
